Here are results for one compound from ChEMBL document CHEMBL4507276 (2021).

Usually residual activity stands for the signal under treatment as a percentage of the control signal.

For experiment [1], the target named is Neuropeptide Y receptor type 1 (Homo sapiens) (UniProt P25929). Briefly: Y1/HU Eurofins-Panlabs selectivity data (BI). As to conditions: Compound concentration 10.0 uM.
For experiment [2], the target named is cAMP-dependent protein kinase catalytic subunit alpha (Homo sapiens) (UniProt P17612). The experiment in a line: PRKACA Invitrogen selectivity data (BI). As to conditions: Compound concentration 3.0 uM.
Experiment [3] concerns the target 5-hydroxytryptamine receptor 6 (Homo sapiens) (UniProt P50406). Briefly: 5HT6/H Cerep selectivity data (BI). As to conditions: Compound concentration 20.0 uM.
Experiment [4] concerns the target Tyrosine-protein kinase Lyn (Homo sapiens) (UniProt P07948). Briefly: LYN A Invitrogen selectivity data (BI). The conditions noted are these: Compound concentration 3.0 uM.
The target of experiment [5] is T1, Tyrosine-protein kinase ITK/TSK (Homo sapiens) (UniProt Q08881).
T1 sequence (whole entry): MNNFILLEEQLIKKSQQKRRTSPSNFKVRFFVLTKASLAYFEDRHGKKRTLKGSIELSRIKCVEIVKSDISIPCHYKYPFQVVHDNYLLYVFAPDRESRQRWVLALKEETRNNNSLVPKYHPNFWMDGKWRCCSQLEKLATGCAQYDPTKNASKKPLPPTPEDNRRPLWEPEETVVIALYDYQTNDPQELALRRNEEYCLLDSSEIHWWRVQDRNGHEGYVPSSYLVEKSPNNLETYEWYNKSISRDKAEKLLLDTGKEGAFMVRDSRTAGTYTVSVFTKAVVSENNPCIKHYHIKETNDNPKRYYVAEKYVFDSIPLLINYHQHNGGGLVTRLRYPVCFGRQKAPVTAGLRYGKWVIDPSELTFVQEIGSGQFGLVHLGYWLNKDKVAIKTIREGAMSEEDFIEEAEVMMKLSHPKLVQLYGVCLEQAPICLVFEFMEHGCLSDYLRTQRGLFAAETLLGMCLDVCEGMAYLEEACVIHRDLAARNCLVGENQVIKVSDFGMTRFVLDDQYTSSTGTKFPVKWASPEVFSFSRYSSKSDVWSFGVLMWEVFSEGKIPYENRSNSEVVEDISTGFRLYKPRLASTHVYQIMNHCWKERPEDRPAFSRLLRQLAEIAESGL
The experiment in a line: ITK Invitrogen selectivity data (BI). As to conditions: Compound concentration 3.0 uM.

Experiment [6] concerns the target Serine/threonine-protein kinase Nek4 (Homo sapiens) (UniProt P51957). Briefly: NEK4 Invitrogen selectivity data (BI). The conditions noted are these: Compound concentration 3.0 uM.
The target in experiment [7] is Vascular endothelial growth factor receptor 1 (Homo sapiens) (UniProt P17948). The experiment in a line: FLT-1(VEGFR1)_CE Cerep selectivity data (BI). The conditions noted are these: Compound concentration 20.0 uM.
Experiment [8] has as its target Interleukin-1 receptor type 1 (Mus musculus) (UniProt P13504). Briefly: IL-1 Eurofins-Panlabs selectivity data (BI). The conditions noted are these: Compound concentration 10.0 uM.
For experiment [9], the target named is Serine/threonine-protein kinase PAK 5 (Homo sapiens) (UniProt Q9P286). Briefly: PAK7 Invitrogen selectivity data (BI). As to conditions: Compound concentration 3.0 uM.
The target of experiment [10] is Serine/threonine-protein kinase MARK2 (Homo sapiens) (UniProt Q7KZI7). The experiment in a line: MARK2 Invitrogen selectivity data (BI). As to conditions: Compound concentration 3.0 uM.
For experiment [11], the target named is Calcium/calmodulin-dependent protein kinase type II subunit alpha (Homo sapiens) (UniProt Q9UQM7). The experiment in a line: CAMK2ALPHA(H) Cerep selectivity data (BI). As to conditions: Compound concentration 20.0 uM.
Experiment [12] deals with T2, NUAK family SNF1-like kinase 1 (Homo sapiens) (UniProt O60285).
T2 sequence (whole entry): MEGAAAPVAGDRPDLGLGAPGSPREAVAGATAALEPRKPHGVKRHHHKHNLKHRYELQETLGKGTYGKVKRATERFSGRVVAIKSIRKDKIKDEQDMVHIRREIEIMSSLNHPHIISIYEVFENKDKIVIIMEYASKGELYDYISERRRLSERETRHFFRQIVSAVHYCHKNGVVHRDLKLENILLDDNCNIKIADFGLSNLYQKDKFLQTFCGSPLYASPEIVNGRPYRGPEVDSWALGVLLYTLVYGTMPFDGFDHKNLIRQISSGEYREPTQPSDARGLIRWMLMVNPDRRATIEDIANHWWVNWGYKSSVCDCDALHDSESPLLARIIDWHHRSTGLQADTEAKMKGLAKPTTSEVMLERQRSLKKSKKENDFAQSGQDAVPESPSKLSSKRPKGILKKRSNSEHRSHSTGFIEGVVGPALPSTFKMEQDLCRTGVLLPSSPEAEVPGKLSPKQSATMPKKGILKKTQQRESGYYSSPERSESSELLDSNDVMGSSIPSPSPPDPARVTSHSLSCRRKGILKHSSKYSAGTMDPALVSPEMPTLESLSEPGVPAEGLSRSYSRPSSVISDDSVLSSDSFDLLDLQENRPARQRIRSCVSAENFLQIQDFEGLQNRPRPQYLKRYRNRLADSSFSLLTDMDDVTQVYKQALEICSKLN
The experiment in a line: NUAK1 Invitrogen selectivity data (BI). The conditions noted are these: Compound concentration 3.0 uM.

For experiment [13], the target named is Mu-type opioid receptor (Homo sapiens) (UniProt P35372). The experiment in a line: MU/H Cerep selectivity data (BI). As to conditions: Compound concentration 20.0 uM.

Chain of Serine/threonine-protein kinase Nek4 (Homo sapiens) (P51957 whole entry, looked up): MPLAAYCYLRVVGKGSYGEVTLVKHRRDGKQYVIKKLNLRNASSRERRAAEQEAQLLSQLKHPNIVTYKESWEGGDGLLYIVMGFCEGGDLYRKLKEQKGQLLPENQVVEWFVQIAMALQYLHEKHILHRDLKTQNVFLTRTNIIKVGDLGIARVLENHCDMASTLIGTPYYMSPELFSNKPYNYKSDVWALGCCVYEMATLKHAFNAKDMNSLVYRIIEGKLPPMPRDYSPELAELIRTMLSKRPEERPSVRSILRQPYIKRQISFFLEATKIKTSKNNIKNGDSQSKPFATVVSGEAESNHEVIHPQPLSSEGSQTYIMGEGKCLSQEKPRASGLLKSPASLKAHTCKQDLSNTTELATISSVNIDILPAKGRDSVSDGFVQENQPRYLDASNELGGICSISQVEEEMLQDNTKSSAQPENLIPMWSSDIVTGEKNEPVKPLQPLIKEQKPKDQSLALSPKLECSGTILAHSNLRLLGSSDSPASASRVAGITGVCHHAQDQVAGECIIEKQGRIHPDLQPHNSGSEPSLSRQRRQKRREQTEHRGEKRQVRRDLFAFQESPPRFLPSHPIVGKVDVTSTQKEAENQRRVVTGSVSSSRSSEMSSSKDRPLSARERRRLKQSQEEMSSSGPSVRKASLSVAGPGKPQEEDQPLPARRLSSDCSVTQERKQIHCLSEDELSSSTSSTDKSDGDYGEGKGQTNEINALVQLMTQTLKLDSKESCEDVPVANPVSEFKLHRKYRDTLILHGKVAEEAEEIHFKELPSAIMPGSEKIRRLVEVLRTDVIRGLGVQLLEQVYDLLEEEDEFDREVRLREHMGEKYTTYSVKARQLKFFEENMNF
Chain of Vascular endothelial growth factor receptor 1 (Homo sapiens) (P17948 whole entry): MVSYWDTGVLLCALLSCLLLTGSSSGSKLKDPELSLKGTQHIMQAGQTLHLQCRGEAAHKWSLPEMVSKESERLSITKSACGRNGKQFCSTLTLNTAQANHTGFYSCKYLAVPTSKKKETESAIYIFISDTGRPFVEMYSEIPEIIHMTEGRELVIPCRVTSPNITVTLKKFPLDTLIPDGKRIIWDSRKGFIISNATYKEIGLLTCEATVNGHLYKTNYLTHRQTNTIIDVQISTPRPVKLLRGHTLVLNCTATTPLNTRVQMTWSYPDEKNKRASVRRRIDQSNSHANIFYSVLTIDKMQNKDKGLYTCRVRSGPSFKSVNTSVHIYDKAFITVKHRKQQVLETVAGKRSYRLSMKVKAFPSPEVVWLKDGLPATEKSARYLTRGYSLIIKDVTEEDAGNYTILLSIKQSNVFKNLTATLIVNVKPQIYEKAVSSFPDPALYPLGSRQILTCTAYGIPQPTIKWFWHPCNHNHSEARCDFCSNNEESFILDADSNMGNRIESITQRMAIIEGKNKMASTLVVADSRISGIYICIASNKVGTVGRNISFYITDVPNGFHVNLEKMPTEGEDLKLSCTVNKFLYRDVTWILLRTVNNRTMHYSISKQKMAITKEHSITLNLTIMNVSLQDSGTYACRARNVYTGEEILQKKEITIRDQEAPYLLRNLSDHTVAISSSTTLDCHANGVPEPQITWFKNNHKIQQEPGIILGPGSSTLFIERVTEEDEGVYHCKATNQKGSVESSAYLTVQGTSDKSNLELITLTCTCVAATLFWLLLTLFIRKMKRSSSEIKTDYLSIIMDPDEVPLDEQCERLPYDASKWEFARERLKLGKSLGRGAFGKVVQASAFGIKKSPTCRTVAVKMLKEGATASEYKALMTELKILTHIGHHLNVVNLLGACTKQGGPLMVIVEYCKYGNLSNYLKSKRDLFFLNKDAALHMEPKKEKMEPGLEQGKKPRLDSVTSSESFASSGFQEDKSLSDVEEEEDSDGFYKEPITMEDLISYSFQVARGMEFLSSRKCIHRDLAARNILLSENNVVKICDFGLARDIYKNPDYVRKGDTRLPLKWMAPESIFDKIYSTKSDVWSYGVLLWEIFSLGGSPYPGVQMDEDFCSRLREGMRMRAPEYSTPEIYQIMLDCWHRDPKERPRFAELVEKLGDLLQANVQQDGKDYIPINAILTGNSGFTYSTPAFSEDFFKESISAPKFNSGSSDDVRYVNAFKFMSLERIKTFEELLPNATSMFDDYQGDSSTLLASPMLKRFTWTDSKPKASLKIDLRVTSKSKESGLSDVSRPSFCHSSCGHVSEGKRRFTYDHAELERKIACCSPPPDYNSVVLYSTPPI
Chain of Serine/threonine-protein kinase MARK2 (Homo sapiens) (Q7KZI7 whole entry): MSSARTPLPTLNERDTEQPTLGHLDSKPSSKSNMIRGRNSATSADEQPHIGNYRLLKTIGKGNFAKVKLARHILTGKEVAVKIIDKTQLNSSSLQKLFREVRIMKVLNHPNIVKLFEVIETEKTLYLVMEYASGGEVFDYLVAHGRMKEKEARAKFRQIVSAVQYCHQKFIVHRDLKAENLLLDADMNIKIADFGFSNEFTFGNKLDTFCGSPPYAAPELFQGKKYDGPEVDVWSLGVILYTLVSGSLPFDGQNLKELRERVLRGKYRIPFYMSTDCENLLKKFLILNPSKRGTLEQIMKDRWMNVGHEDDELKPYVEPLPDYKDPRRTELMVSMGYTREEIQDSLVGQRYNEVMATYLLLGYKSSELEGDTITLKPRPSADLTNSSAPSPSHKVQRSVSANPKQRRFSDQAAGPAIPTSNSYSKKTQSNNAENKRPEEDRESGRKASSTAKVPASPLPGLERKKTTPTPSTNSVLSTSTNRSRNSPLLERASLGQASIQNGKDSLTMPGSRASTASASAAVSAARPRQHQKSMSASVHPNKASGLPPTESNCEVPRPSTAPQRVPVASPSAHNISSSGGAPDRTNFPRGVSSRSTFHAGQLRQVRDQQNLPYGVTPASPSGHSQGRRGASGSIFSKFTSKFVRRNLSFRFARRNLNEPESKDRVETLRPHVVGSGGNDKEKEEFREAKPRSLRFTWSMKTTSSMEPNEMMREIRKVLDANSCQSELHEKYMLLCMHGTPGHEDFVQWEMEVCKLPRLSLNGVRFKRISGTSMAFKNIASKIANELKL
Chain of Tyrosine-protein kinase Lyn (Homo sapiens) (P07948 2-512 limits assumed): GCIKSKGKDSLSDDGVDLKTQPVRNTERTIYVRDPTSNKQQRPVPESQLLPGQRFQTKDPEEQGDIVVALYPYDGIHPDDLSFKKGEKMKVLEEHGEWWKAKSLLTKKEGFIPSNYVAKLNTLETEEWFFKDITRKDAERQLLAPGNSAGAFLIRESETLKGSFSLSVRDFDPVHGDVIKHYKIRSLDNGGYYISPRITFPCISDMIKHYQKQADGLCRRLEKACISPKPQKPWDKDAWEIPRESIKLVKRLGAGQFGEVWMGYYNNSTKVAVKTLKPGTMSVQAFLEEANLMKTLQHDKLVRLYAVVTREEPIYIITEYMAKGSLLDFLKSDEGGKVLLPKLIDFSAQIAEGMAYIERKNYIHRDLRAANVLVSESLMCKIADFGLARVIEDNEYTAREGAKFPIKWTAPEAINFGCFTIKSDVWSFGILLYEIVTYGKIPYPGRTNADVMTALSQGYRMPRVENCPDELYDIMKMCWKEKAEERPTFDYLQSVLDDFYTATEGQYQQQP
Chain of Calcium/calmodulin-dependent protein kinase type II subunit alpha (Homo sapiens) (Q9UQM7 whole entry): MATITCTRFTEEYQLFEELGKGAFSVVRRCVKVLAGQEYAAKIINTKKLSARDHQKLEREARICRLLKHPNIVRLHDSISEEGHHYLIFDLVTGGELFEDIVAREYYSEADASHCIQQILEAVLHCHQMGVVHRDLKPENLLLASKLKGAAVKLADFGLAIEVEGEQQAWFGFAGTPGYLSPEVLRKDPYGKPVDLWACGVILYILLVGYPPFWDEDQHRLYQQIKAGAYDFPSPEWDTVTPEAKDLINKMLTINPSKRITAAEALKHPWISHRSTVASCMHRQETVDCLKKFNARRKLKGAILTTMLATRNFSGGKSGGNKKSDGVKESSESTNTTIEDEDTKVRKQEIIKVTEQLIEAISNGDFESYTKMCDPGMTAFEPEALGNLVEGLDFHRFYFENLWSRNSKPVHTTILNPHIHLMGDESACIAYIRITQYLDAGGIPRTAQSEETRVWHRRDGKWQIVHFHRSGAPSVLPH
Chain of 5-hydroxytryptamine receptor 6 (Homo sapiens) (P50406 whole entry): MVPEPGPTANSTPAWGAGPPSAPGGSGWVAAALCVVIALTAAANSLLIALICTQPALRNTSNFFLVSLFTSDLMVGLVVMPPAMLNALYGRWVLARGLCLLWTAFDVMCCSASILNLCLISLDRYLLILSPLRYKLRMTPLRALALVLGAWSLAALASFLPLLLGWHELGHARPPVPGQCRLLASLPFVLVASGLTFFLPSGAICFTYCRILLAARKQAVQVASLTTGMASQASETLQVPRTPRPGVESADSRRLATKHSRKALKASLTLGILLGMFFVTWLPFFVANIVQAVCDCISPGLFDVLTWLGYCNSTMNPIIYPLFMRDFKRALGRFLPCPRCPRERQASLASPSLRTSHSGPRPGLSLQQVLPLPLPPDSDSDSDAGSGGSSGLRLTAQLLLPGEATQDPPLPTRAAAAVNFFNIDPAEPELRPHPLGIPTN
Chain of Interleukin-1 receptor type 1 (Mus musculus) (P13504 whole entry): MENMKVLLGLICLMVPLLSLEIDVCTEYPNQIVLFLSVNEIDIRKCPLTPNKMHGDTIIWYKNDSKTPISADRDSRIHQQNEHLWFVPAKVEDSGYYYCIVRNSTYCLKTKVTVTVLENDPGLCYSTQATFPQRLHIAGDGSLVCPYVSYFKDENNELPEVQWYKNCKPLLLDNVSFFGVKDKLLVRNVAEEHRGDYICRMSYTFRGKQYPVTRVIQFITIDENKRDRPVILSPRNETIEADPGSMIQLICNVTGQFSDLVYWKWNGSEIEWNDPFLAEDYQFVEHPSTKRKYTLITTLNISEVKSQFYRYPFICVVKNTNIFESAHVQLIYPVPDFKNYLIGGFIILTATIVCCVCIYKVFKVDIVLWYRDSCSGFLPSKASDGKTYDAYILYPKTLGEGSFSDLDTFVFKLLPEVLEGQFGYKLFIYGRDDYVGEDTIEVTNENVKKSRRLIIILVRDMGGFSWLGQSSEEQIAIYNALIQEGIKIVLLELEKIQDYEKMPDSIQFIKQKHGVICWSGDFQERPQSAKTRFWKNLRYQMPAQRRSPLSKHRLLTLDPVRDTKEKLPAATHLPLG

`CN(C)C(=O)Cn1cc(-c2nc([C@@](C)(c3ccc(-c4cnc(N)nc4)cc3)C3CC3)no2)cn1` [BI 665915]: the residual activity in [1] was 109%; in [2], 104%; in experiment [3], 95%; in experiment [4] it was 93%; in experiment [5], 94%; in experiment [6], 97%. In addition, the residual activity in experiment [7] was 36%; in experiment [8] it was 99%; in experiment [9], 97%; in [10], 98.5%; in [11], 111%; in experiment [12], 96%. Also, in experiment [13], the residual activity is 103%.
